Counter-ions that a name gives are not always drawn. Like-named read-outs stand apart in the source and are kept apart here.
Experiments:
[1] = biological target: T1, human Aurora A (Homo sapiens, UniProt O14965); test: Aurora A inhibitory activity (IMAP fluorescence polarization phosphorylation assay); format: biochemical; details: 20 μM ATP, 30° C., 120 minutes
T1 construct: His (N); made in house; host or cells: Escherichia coli BL21-CodonPlus(DE3)-RIL
T1 sequence (O14965 1-403): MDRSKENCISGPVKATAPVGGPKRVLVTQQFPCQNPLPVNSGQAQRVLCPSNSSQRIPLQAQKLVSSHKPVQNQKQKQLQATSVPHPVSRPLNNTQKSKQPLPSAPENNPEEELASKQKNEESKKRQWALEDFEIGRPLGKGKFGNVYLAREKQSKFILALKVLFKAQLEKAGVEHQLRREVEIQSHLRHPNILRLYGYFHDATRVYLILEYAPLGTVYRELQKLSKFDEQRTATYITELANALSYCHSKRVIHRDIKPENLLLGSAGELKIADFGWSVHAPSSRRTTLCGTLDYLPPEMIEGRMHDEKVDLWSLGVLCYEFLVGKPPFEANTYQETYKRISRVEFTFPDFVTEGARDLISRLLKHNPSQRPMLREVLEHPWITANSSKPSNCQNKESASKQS
Text: cDNA of N-terminal His-tagged human Aurora A was integrated into an expression vector, which was then highly expressed in Escherichia coli BL21-CodonPlus(DE3)-RIL cells. The Escherichia coli was harvested and lysed, and then the His-tagged human Aurora A protein was applied onto a nickel chelate column and eluted from the column with imidazole. The active fractions were desalted with a desalting column to give a purified enzyme.
For the phosphorylation reaction, the method by Upstate, Inc. [Kinase Profiler™ Assay Protocols] was referred to, and phosphorylation of the substrate was detected using IMAP® technology (Molecular Devices, Co. Ltd.) (Gaudet E W. et. al, J. Biomol. Screen, 8, 164-175 (2003)). Concretely, the phosphorylation reaction and the detection were carried out as follows:
The phosphorylation reaction was conducted using 384 well plate, and the reaction volume was 10 μl/well. The reaction buffer is comprised of 50 mM Tris-chloride buffer (pH 7.4), 15 mM magnesium acetate, and 0.2 mM ethylenediamine-N,N,N′,N′-tetraacetic acid (EDTA). Thereto, the purified Aurora A protein, 100 nM of the peptide substrate, and 20 μM of adenosine 5′-triphosphate (ATP) were added, and then the reaction was carried out at 30° C. for 120 minutes.
Thereafter, in order to terminate and detect the reaction, 30 μl of the IMAP (registered trademark) binding reagent (IMAP Progressive Binding Reagent, R7284) that had been diluted (1:400) in the 1×IMAP binding buffer A (IMAP Progressive Binding Buffer A, 5× stock, R7282) was added to each well. The solution stood still for 60 minutes in the dark, and then fluorescence polarization was measured using a high-end microplate reader (excitation wavelength: 485 nm; emission wavelength: 520 nm).
(§1) The compound to be tested was added to the reaction system such that a dilution series of the compound in dimethylsulfoxide (DMSO) was prepared, and then 0.5 μL of this solution was added for the testing to each well. Each control well was provided by adding 0.5 μL of DMSO to the well in place of the DMSO solution containing the compound to be tested.

[2] = biological target: T2, GST-tagged human Aurora B(AurB)/His-tagged human INCENP complex proteins (Homo sapiens, UniProt Q96GD4); test: Aurora B inhibitory activity (Method A, IMAP assay kit); format: biochemical; details: 40 μM ATP, 25° C., 45 minutes
T2 construct: GST; purchased Carna Biosciences, Inc
T2 sequence (Q96GD4 whole entry): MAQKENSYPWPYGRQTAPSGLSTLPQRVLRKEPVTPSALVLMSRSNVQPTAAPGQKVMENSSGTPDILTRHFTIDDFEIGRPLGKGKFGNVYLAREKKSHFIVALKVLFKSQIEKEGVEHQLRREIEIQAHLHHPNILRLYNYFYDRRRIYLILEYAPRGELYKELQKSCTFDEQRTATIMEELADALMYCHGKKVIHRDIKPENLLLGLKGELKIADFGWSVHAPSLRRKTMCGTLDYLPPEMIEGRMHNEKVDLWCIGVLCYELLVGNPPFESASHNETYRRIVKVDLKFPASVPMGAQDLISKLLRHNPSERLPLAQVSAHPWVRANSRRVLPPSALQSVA
T2 sequence (Q9NQS7 803-916 partner limits assumed): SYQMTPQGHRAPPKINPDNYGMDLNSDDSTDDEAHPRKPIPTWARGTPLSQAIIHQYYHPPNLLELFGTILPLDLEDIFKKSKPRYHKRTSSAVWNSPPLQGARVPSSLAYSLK
Protocol: An assay development kit for IMAP (registered trademark) (Aurora B), purchased from Carna Biosciences, Inc., was used for phosphorylation reaction, and the phosphorylation of a substrate was detected using the IMAP technology. […] Using the same, the phosphorylation reaction was conducted in accordance with a partially revised protocol attached to the kit, and then the phosphorylation of the substrate was detected using the IMAP technology.
For the phosphorylation reaction, 384 well plate was used, and the reaction volume was 10 μl/well. The composition of the reaction buffer (assay buffer) is comprised of 20 mM of HEPES buffer (pH 7.4), 0.01% Tween-20, and 2 mM of dithiothreitol (DTT). Thereto, AurB/INCENP complex protein, 100 nM of the substrate, and 40 μM of ATP, and 1 mM of magnesium salt were added, and then the reaction was conducted at 25° C. for 45 minutes. Thereafter, in order to terminate and detect the reaction, 30 μl of the IMAP (registered trademark) binding reagent (IMAP Progressive Binding Reagent, R7284) that had been diluted (1:400) in the 1× IMAP binding buffer A (IMAP Progressive Binding Buffer A, 5× stock, R7282) was added to each well.
as §1, with “DMSO” for “dimethylsulfoxide (DMSO)”

[3] = test system: Human cervical cancer cells (HeLa S3); test: Cell growth inhibitory effect, WST-8 method; format: cell-based; details: HeLa S3, three days incubation, read-out: Cell growth inhibitory effect (HeLaS3) (IC50)
Protocol: Fetal calf serum (FCS) was purchased from Moregate Biotech, and DMEM medium was purchased from Invitrogen Corp. WST-8 was purchased from Kishida Chemical Co., Ltd.
(§2) Human cervical cancer cells (HeLa S3) were obtained from the American Type Culture Collection (ATCC).
Cells were suspended in a DMEM medium containing 10% FCS, and the cell suspension was dispensed to a 96-well plastic plate at a rate of 750 cells/100 microliters per well. The plate was incubated overnight in 5% CO2-95% air at 37° C. A drug was subjected to graded dilution in dimethylsulfoxide and further diluted with a DMEM medium containing 10% FCS. Then, the dilution was dispensed to the plate on which cells had been disseminated in advance, at a rate of 100 microliters per well. The plate was incubated for further three days in 5% CO2-95% air at 37° C. Cell growth after incubation was measured by the WST-8 method (H. Tominaga, et al., Anal. Commun., 36, 47-50 (1999)). Here, the WST-8 method refers to a method in which 20 microliters of a WST-8 reagent solution is added to each well, incubation is conducted at 37° C. for 60 minutes, the plate is stirred, and the amount of formazan produced is measured by a […] method to determine the inhibitory rate of the drug.

[4] = test system: Human cervical cancer cells (HeLa S3); test: Effect by combined use of drugs in cells (docetaxel), WST-8 method; format: cell-based; details: HeLa S3, three days; for inhibition at 1 µM: compound 1.0 μM alone
Protocol: Fetal calf serum (FCS) was purchased from Moregate Biotech, DMEM medium from Invitrogen Corp., docetaxel (tradename: Taxere) from Sigma-Aldrich, Inc., and WST-8 from Kishida Chemical Co., Ltd.
as §2
Cells were suspended in a DMEM medium containing 10% FCS, and the cell suspension was dispensed to two 96-well plastic plates at a rate of 750 cells/100 microliters per well. The plates were incubated overnight in 5% CO2-95% air at 37° C. A drug was subjected to graded dilution in dimethylsulfoxide and further diluted with DMSO or with a DMEM medium containing 10% FCS and also containing 0.6 nM docetaxel. Then, the dilutions were each dispensed to one of the plates on which cells had been disseminated in advance, at a rate of 100 microliters per well. The final concentration of docetaxel at this stage was 0.3 nM. Also, the concentrations in the case of sole administration of the compound according to the invention were 0.003, 0.01, 0.03, 0.1, 0.3, 1, 3 and 10 μM. The plates were incubated for further three days in 5% CO2-95% air at 37° C. Cell growth after incubation was measured by the WST-8 method (H. Tominaga, et al., Anal. Commun., 36, 47-50 (1999)). Here, the WST-8 method refers to a method in which 20 microliters of a WST-8 reagent solution is added to each well, incubation is conducted at 37° C. for 60 minutes, the plate is stirred, and the amount of formazan produced is measured by a colorimetric method to determine the inhibitory rate of the drug. The growth inhibitory effects of docetaxel and of the compound according to the invention were determined, with the value obtained in sole treatment of DMSO being defined as 0%.

[5] = Homo sapiens, HeLa S3, 72 h, compound 0.1 μM alone, read-out: Cell growth inhibitory effect by sole administration of the compound of Example (%)
[6] = Homo sapiens, HeLa S3, 72 h, compound 0.3 μM alone, read-out: Cell growth inhibitory effect by sole administration of the compound of Example (%)
[7] = compound 0.1 μM + docetaxel 0.3 nM
[8] = compound 0.3 μM + docetaxel 0.3 nM
[9] = Homo sapiens, HeLa S3, 72 h, read-out: Cell growth inhibitory effect by sole administration of the compound of Example (%)
[10] = compound 1.0 μM + docetaxel 0.3 nM

IC50 [1]	IC50 [2]	IC50 ([3]; Homo sapiens, 72 h)	IC50 [3]	Compound	inhibition at 0.1 µM [4, 5]	inhibition at 0.3 µM [4, 6]	Cell growth inhibitory effect by combined administration of docetaxel and the compound of Example (%) [4, 7]	Cell growth inhibitory effect by combined administration of docetaxel and the compound of Example (%) [4, 8]	inhibition at 0.03 µM ([4]; Homo sapiens, HeLa S3, 72 h, compound 0.03 μM alone, read-out: Cell growth inhibitory effect by sole administration of the compound of Example (%))	Cell growth inhibitory effect by combined administration of docetaxel and the compound of Example (%) ([4]; compound 0.03 μM + docetaxel 0.3 nM)	inhibition at 1 µM [4, 9]	inhibition at 3 µM ([4]; Homo sapiens, HeLa S3, 72 h, compound 3.0 μM alone, read-out: Cell growth inhibitory effect by sole administration of the compound of Example (%))	Cell growth inhibitory effect by combined administration of docetaxel and the compound of Example (%) [4, 10]	Cell growth inhibitory effect by combined administration of docetaxel and the compound of Example (%) ([4]; compound 3.0 μM + docetaxel 0.3 nM)	Cell growth inhibitory effect by sole administration of the compound of Example (%) ([4]; compound 0.1 μM alone)	Cell growth inhibitory effect by sole administration of the compound of Example (%) ([4]; compound 0.3 μM alone)
0.12 nM	130 nM	1150 nM	–	Fc1c(Cl)cccc1O[C@H]1CC[C@](Cc2cccc(Nc3cc[nH]n3)n2)(c2n[nH]c(=S)o2)CC1 [Example 24, 5-(trans-4-(3-chloro-2-fluorophenoxy)-1-((6-(1H-pyrazol-3-ylamino)pyridin-2-yl)methyl)cyclohexyl)-1,3,4-oxadiazole-2(3H)-thione]	0.5%	25.4%	72.8%	87.8%	–	–	–	–	–	–	–	–
0.31 nM	120 nM	220 nM	–	O=c1[nH]nc([C@]2(Cc3cccc(Nc4cc[nH]n4)n3)CC[C@@H]([S+]([O-])c3cccc(Cl)c3Cl)CC2)o1 (stereo partly drawn) [Example 35, 5-(trans-4-((2,3-dichlorophenyl)sulfinyl)-1-((6-(1H-pyrazol-3-ylamino)pyridin-2-yl)methyl)cyclohexyl)-1,3,4-oxadiazol-2(3H)-one trifluoroacetate]	42.7%	–	89.9%	–	25.1%	78.0%	–	–	–	–	–	–
0.19 nM	53 nM	5890 nM	–	O=C(O)[C@]1(Cc2cccc(Nc3nccs3)n2)CC[C@@H]([S+]([O-])c2cccc(Cl)c2Cl)CC1 (stereo partly drawn) [Example 31, trans-4-((2,3-dichlorophenyl)sulfinyl)-1-((6-(1,3-thiazol-2-ylamino)pyridin-2-yl)methyl)cyclohexanecarboxylic acid trifluoroacetate]	–	–	–	–	–	–	1%	38.5%	75.1%	89.0%	–	–
0.19 nM	670 nM	–	670 nM	5-(trans-4-(3-chloro-2-fluorophenoxy)-1-((6-(1H-pyrazol-3-ylamino)pyrazin-2-yl)methyl)cyclohexyl)-1,3,4-oxadiazol-2(3H)-one [Example 29]	–	–	79.0%	92.9%	–	–	–	–	–	–	11.3%	39.9%
0.11 nM	32 nM	830 nM	–	Cl.O=C(O)[C@]1(Cc2cccc(Nc3nccs3)n2)CC[C@@H](Oc2cccc(C(F)(F)F)c2F)CC1 [Example 4, trans-4-(2-fluoro-3-(trifluoromethyl)phenoxy)-1-((6-(1,3-thiazol-2-ylamino)pyridin-2-yl)methyl)cyclohexanecarboxylic acid hydrochloride]	–	22.9%	–	88.6%	–	–	52.9%	–	93.8%	–	–	–
1.4 nM	800 nM	3300 nM	–	Cn1nc([C@]2(Cc3cccc(Nc4cc[nH]n4)n3)CC[C@@H](Oc3cccc(Cl)c3F)CC2)oc1=O [Example 26, 5-(trans-4-(3-chloro-2-fluorophenoxy)-1-((6-(1H-pyrazol-3-ylamino)pyridin-2-yl)methyl)cyclohexyl)-3-methyl-1,3,4-oxadiazol-2(3H)-one]	–	11.8%	–	67.3%	–	–	18.2%	–	88.5%	–	–	–

From US20100016335A1, “NOVEL AMINOPYRIDINE DERIVATIVES HAVING AURORA A SELECTIVE INHIBITORY ACTION” (priority 2006, published 2010)
